“And” between values parts separate entries of the source, which are not always exact repeats. Equal entries are not always repeated. Toxic doses and inconclusive results are not listed.
Test system: L1210 leukemia ip in BDF1 mice, survival T/C
Test: NCI In Vivo Anticancer Drug Screen. Data for tumor model L1210 Leukemia (intraperitoneal) in B6D2F1 (BDF1) mice
Settings: endpoint: mean survival time, higher = longer survival
How it was run: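 In this screen, tumor-bearing mice given compound are compared to those given vehicle, and their survival values are reported as a treated-to-control quotient.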

[1] = dose: 100.0 mg/kg/injection, schedule: Q04DX003 (ip), vehicle: saline with Tween-80
[2] = dose: 200.0 mg/kg/injection, schedule: Q04DX003 (ip), vehicle: saline with Tween-80
[3] = dose: 100.0 mg/kg/injection, schedule: Q01DX001 (ip), vehicle: saline
[4] = dose: 200.0 mg/kg/injection, schedule: Q01DX001 (ip), vehicle: saline
[5] = dose: 400.0 mg/kg/injection, schedule: Q01DX001 (ip), vehicle: saline
[6] = dose: 12.5 mg/kg/injection, schedule: Q01DX009 (ip), vehicle: saline with Tween-80
[7] = dose: 25.0 mg/kg/injection, schedule: Q01DX009 (ip), vehicle: saline with Tween-80
[8] = dose: 50.0 mg/kg/injection, schedule: Q01DX009 (ip), vehicle: saline with Tween-80
[9] = dose: 100.0 mg/kg/injection, schedule: Q01DX009 (ip), vehicle: saline with Tween-80
[10] = dose: 25.0 mg/kg/injection, schedule: Q01DX009 (ip), vehicle: Klucel (hydroxypropylcellulose) (HPC)
[11] = dose: 100.0 mg/kg/injection, schedule: Q01DX009 (ip), vehicle: Klucel (hydroxypropylcellulose) (HPC)
[12] = dose: 100.0 mg/kg/injection, schedule: Q04DX003 (ip), vehicle: Klucel (hydroxypropylcellulose) (HPC)
[13] = dose: 200.0 mg/kg/injection, schedule: Q01DX009 (ip), vehicle: Klucel (hydroxypropylcellulose) (HPC)
[14] = dose: 200.0 mg/kg/injection, schedule: Q04DX003 (ip), vehicle: Klucel (hydroxypropylcellulose) (HPC)
[15] = dose: 400.0 mg/kg/injection, schedule: Q01DX009 (ip), vehicle: Klucel (hydroxypropylcellulose) (HPC)
[16] = dose: 400.0 mg/kg/injection, schedule: Q04DX003 (ip), vehicle: Klucel (hydroxypropylcellulose) (HPC)
[17] = dose: 100.0 mg/kg/injection, schedule: Q01DX009 (ip), vehicle: saline sonified
[18] = dose: 50.0 mg/kg/injection, schedule: Q01DX001 (ip), vehicle: saline
[19] = dose: 200.0 mg/kg/injection, schedule: Q01DX009 (ip), vehicle: saline with Tween-80

## CCC1=C(c2cc(Cl)c3ccccc3c2OCC(=O)O)OC(CC)(C(=O)c2cc(Cl)c3ccccc3c2OCC(=O)O)CC1 (stereo not given)
dose: 30.0 mg/kg/injection, schedule: Q01DX009 (ip), vehicle: saline with Tween-80
  T/C: 96 % of control
dose: 31.0 mg/kg/injection, schedule: Q01DX Z (ip), vehicle: other
  T/C: 92 % of control
dose: 60.0 mg/kg/injection, schedule: Q01DX009 (ip), vehicle: saline with Tween-80
  T/C: 94 % of control
dose: 62.0 mg/kg/injection, schedule: Q01DX Z (ip), vehicle: other
  T/C: 95 % of control
[1]
  T/C: 103 % of control
dose: 120.0 mg/kg/injection, schedule: Q01DX009 (ip), vehicle: saline with Tween-80
  T/C: 92 % of control
[2]
  T/C: 93 % of control
dose: 240.0 mg/kg/injection, schedule: Q01DX009 (ip), vehicle: saline with Tween-80
  T/C: 92 % of control

## CCCCOB(OCCCC)c1ccc(B(OCCCC)OCCCC)cc1
[3]
  T/C: 97 % of control
[4]
  T/C: 101 % of control
[5]
  T/C: 89 % of control

## O=C(Nc1ccccc1)Oc1ccc(Br)cc1Br
dose: 75.0 mg/kg/injection, schedule: Q01DX001 (ip), vehicle: saline
  T/C: 94 % of control
dose: 150.0 mg/kg/injection, schedule: Q01DX001 (ip), vehicle: saline
  T/C: 89 % of control
dose: 300.0 mg/kg/injection, schedule: Q01DX001 (ip), vehicle: saline
  T/C: 94 % of control

## COc1cc(/C=N/NC(=O)c2ccccc2Cl)ccc1O
[6]
  T/C: 91 % of control
[7]
  T/C: 88 % of control
[8]
  T/C: 95 % of control and 97 % of control

## O=C(O)C(O)(C1CCCCC1)C1CCC2CCC3CCCC1C32 (stereo not given)
[9]
  T/C: 87 % of control

## C[n+]1c2c(cc3ccccc31)CCC2
[6]
  T/C: 87 % of control
[7]
  T/C: 97 % of control
[8]
  T/C: 108 % of control and 90 % of control

## O=C(Nc1cc([N+](=O)[O-])ccc1Cl)N(Cc1ccccc1)c1ccccc1
dose: 12.5 mg/kg/injection, schedule: Q01DX009 (ip), vehicle: Klucel (hydroxypropylcellulose) (HPC)
  T/C: 94 % of control and 95 % of control
[10]
  T/C: 94 % of control and 97 % of control
dose: 50.0 mg/kg/injection, schedule: Q01DX009 (ip), vehicle: Klucel (hydroxypropylcellulose) (HPC)
  T/C: 89 % of control

## CC1NC(=O)NC(=O)C1CCSCCC1C(=O)NC(=O)NC1C (stereo not given)
[3]
  T/C: 96 % of control
[4]
  T/C: 109 % of control
[5]
  T/C: 104 % of control

## CN(C)CCC/C=N/Nc1ccc(Cl)cc1[N+](=O)[O-]
[1]
  T/C: 96 % of control
[2]
  T/C: 91 % of control

## CNC(=O)OCC(Cl)(Cl)Cl
[11]
  T/C: 97 % of control
[12]
  T/C: 96 % of control
[13]
  T/C: 98 % of control
[14]
  T/C: 100 % of control
[15]
  T/C: 95 % of control
[16]
  T/C: 100 % of control

## [O-]c1c[n+](-c2ccc3ccccc3c2)no1
dose: 100.0 mg/kg/injection, schedule: Q04DX003 (ip), vehicle: carboxymethylcellulose (CMC)
  T/C: 114 % of control
dose: 200.0 mg/kg/injection, schedule: Q04DX003 (ip), vehicle: carboxymethylcellulose (CMC)
  T/C: 110 % of control
dose: 400.0 mg/kg/injection, schedule: Q04DX003 (ip), vehicle: carboxymethylcellulose (CMC)
  T/C: 104 % of control

## C#CC(OC(=O)NC1CCCCC1)(c1ccccc1)c1ccccc1
dose: 3.0 mg/kg/injection, schedule: Q01DX009 (ip), vehicle: carboxymethylcellulose (CMC)
  T/C: 101 % of control
dose: 6.0 mg/kg/injection, schedule: Q01DX009 (ip), vehicle: carboxymethylcellulose (CMC)
  T/C: 100 % of control
dose: 6.25 mg/kg/injection, schedule: Q01DX009 (ip), vehicle: saline with Tween-80
  T/C: 106 % of control
dose: 12.0 mg/kg/injection, schedule: Q01DX009 (ip), vehicle: carboxymethylcellulose (CMC)
  T/C: 110 % of control
[6]
  T/C: 106 % of control
dose: 12.5 mg/kg/injection, schedule: Q01DX009 (ip), vehicle: saline
  T/C: 106 % of control
dose: 25.0 mg/kg/injection, schedule: Q01DX009 (ip), vehicle: carboxymethylcellulose (CMC)
  T/C: 116 % of control
dose: 25.0 mg/kg/injection, schedule: Q01DX009 (ip), vehicle: saline
  T/C: 114 % of control
dose: 50.0 mg/kg/injection, schedule: Q01DX009 (ip), vehicle: saline
  T/C: 157 % of control
dose: 88.0 mg/kg/injection, schedule: Q04DX003 (ip), vehicle: saline sonified
  T/C: 107 % of control
dose: 100.0 mg/kg/injection, schedule: Q01DX001 (ip), vehicle: carboxymethylcellulose (CMC)
  T/C: 97 % of control
[17]
  T/C: 96 % of control
dose: 100.0 mg/kg/injection, schedule: Q01DX009 (ip), vehicle: saline
  T/C: 97 % of control
dose: 132.0 mg/kg/injection, schedule: Q04DX003 (ip), vehicle: saline sonified
  T/C: 110 % of control
dose: 200.0 mg/kg/injection, schedule: Q01DX001 (ip), vehicle: carboxymethylcellulose (CMC)
  T/C: 104 % of control
dose: 300.0 mg/kg/injection, schedule: Q04DX003 (ip), vehicle: saline sonified
  T/C: 110 % of control
dose: 400.0 mg/kg/injection, schedule: Q01DX001 (ip), vehicle: carboxymethylcellulose (CMC)
  T/C: 116 % of control

## CS(=O)CC(O)(c1ccccc1)c1ccccc1 (stereo not given)
[18]
  T/C: 102 % of control
[3]
  T/C: 101 % of control
[4]
  T/C: 98 % of control
[5]
  T/C: 97 % of control

## Fc1c(F)c(F)c(Oc2c(F)c(F)c(F)c(F)c2Oc2c(F)c(F)c(F)c(F)c2F)c(F)c1F
dose: 10.0 mg/kg/injection, schedule: Q01DX009 (ip), vehicle: Klucel (hydroxypropylcellulose) (HPC)
  T/C: 96 % of control
[10]
  T/C: 96 % of control
dose: 37.5 mg/kg/injection, schedule: Q01DX009 (ip), vehicle: Klucel (hydroxypropylcellulose) (HPC)
  T/C: 98 % of control
dose: 150.0 mg/kg/injection, schedule: Q01DX009 (ip), vehicle: Klucel (hydroxypropylcellulose) (HPC)
  T/C: 97 % of control
dose: 300.0 mg/kg/injection, schedule: Q01DX009 (ip), vehicle: Klucel (hydroxypropylcellulose) (HPC)
  T/C: 99 % of control

## O=Cc1ccc(C=O)c(Cl)c1
[17]
  T/C: 100 % of control
[12]
  T/C: 100 % of control
dose: 200.0 mg/kg/injection, schedule: Q01DX009 (ip), vehicle: saline sonified
  T/C: 87 % of control
[14]
  T/C: 95 % of control
dose: 400.0 mg/kg/injection, schedule: Q01DX009 (ip), vehicle: saline sonified
  T/C: 94 % of control
[16]
  T/C: 103 % of control

## CCCCCCCCCCCc1cccc2ccccc12
dose: 50.0 mg/kg/injection, schedule: Q04DX002 (ip), vehicle: saline with Tween-80
  T/C: 92 % of control
dose: 100.0 mg/kg/injection, schedule: Q04DX002 (ip), vehicle: saline with Tween-80
  T/C: 89 % of control
dose: 200.0 mg/kg/injection, schedule: Q04DX002 (ip), vehicle: saline with Tween-80
  T/C: 92 % of control
dose: 400.0 mg/kg/injection, schedule: Q04DX002 (ip), vehicle: saline with Tween-80
  T/C: 95 % of control

## Cc1cnc2cccc(C)c2c1Cl
[18]
  T/C: 101 % of control
[3]
  T/C: 97 % of control
[4]
  T/C: 95 % of control

## NC(=O)c1ccccc1NC(=O)Nc1ccccc1F
[11]
  T/C: 105 % of control
[13]
  T/C: 107 % of control
[15]
  T/C: 100 % of control

## N#Cc1cnn(C(N)=O)c1N
[12]
  T/C: 100 % of control
[14]
  T/C: 95 % of control
[16]
  T/C: 100 % of control

## Cn1c(=O)[nH]cc(C(=O)O)c1=O
[12]
  T/C: 91 % of control
[14]
  T/C: 92 % of control
[16]
  T/C: 91 % of control

## O=C(CCCC(=O)NNC(=O)Nc1cccc2ccccc12)NNC(=O)Nc1cccc2ccccc12
[18]
  T/C: 98 % of control
[3]
  T/C: 96 % of control
[4]
  T/C: 87 % of control

## O=C(O)Cc1ccc2c3c(ccc([N+](=O)[O-])c13)CC2
[8]
  T/C: 95 % of control
[9]
  T/C: 93 % of control
[1]
  T/C: 96 % of control
[19]
  T/C: 90 % of control
[2]
  T/C: 96 % of control

## Cc1nnc(NS(=O)(=O)c2ccc(N=Nc3c(N)nc(N)[nH]c3=O)cc2)s1
dose: 5.0 mg/kg/injection, schedule: Q01DX001 (ip), vehicle: saline
  T/C: 105 % of control
dose: 10.0 mg/kg/injection, schedule: Q01DX001 (ip), vehicle: saline
  T/C: 102 % of control
dose: 20.0 mg/kg/injection, schedule: Q01DX001 (ip), vehicle: saline
  T/C: 98 % of control
dose: 40.0 mg/kg/injection, schedule: Q01DX001 (ip), vehicle: saline
  T/C: 102 % of control

## CC(C)c1ccc(C(=O)O)cc1S(=O)(=O)F
[9]
  T/C: 95 % of control
[19]
  T/C: 98 % of control

Reference: PubChem BioAssay AID248 (DTP/NCI, 2004)
